Experiment: Inhibition of recombinant PP1

## CNC(=O)CC[C@@H](NC(=O)[C@@H](C)[C@H](/C=C/C(C)=C/[C@H](C)[C@H](Cc1ccccc1)OC)NC(=O)[C@H](CCCNC(=N)N)NC(=O)C[C@@H](NC(=O)[C@H](CCCNC(=N)N)NC(=O)[C@@H](C)NC(=O)C(C)=O)C(=O)O)C(=O)O
  IC30: 0.8 µM

## C=C1C(=O)N[C@H](C)C(=O)N[C@@H](CCCNC(=N)N)C(=O)N[C@@H](C(=O)O)CC(=O)N[C@@H](CCCNC(=N)N)C(=O)N[C@@H](/C=C/C(C)=C/[C@H](C)[C@H](Cc2ccccc2)OC)[C@H](C)C(=O)N[C@@H](C(=O)O)CCC(=O)N1C
  IC30: 7.8 µM

— ChEMBL document CHEMBL1146491, “Seco[D-Asp3]microcystin-RR and [D-Asp3,D-Glu(OMe)6]microcystin-RR, two new microcystins from a toxic water bloom of the cyanobacterium planktothrixrubescens” (J Nat Prod, 2004)
